Test results from patent publication US7014839B2, “Light imaging contrast agents” (Amersham Health AS, priority 1995, dated 2006).
Marks after values point to notes of the source that are not given here.

Key:
[1] = Average particle size of milled nanoparticle suspensions (light scattering); details: for average particle size: light scattering
Method: WIN 70146 (an iodinated X-ray contrast agent prepared according to Example 23 below) was added to each of 3×1.5 oz brown glass bottles containing approximately 12 ml of zirconium silicate, 1.1 mm diameter beads in an amount sufficient to be 15% (wt/vol %) of the final suspension. Bottle A was also made 3% (wt/vol %) Pluronic F-68 while bottle B was made 3% (wt/vol %)) Pluronic F-108 and bottle C was made 3% (wt/vol %) Tetronic T-908. The resulting suspensions were milled at approx 150 rpm for a total of 9 days with estimates of particle size determined at various intervals as detailed below.
WIN 70146 was milled with 1.1 mm diameter zirconium silicate beads for 3 days under aseptic conditions. The concentration of this agent was 15% WIN 70146 in the presence of 4% Pluronic F-108. No additional salts or surfactants were added.
WIN 70146 was milled with 1.1 mm diameter zirconium silicate beads in the presence of Pluronic F-108 for 3 days. […] At this point, sterile PEG 400 was added to the suspension such that at completion, the formulation contained 15% (wt/vol %) WIN 70146, 3% (wt/vol %) Pluronic F-108 and 10% PEG 400.
(§1) This suspension was then diluted in water to various levels listed below. The percent of incident light transmitted was then determined for each suspension at several wavelengths (see below). The suspensions were then dissolved by addition of methanol and examined for percent transmitted light against an equivalent solvent blank.
A formulation of WIN 70177 (an iodinated X-ray contrast agent prepared according to Example 24) was prepared as 15 gm of WIN 70177/100 ml of suspension and 4.25-gm of Pluronic F108/100 ml of suspension and 10 gm of PEG 400/100 ml of suspension.
A formulation of WIN 67722 (an iodinated X-ray contrast agent as described in U.S. Pat. No. 5,322,679) was prepared as in Example 1 using 3% Pluronic F108 and 15% PEG 1450.
as §1

[2] = Percent of incident light transmitted by diluted nanoparticle suspension and by methanol-dissolved agent; type: physicochemical; details: for % T suspension 632 nm / % T suspension 700 nm / % T suspension 820 nm / % T suspension 800 nm: nanoparticle suspension
Source text: The results are given below.

[3] = Absorbance vs wavelength of dissolved and nanoparticle agent; type: physicochemical; details: above 600 nm; for Absorbance vs wavelength of dissolved agent: dissolved (methanol); for Absorbance vs wavelength of nanoparticle agent: particulate suspension
[4] = test system: mice
Method: WIN 70146 was prepared as in Example 10 and injected into the tail vein of mice at doses of 3 ml/kg, 15 ml/kg, and 30 ml/kg (ie. 0.45 gm/kg, 2.25 gm/kg and 4.5 gm/kg).

[5] = Stability testing in fresh rat plasma; type: physicochemical; details: nanoparticle suspension, F108/PEG 400
Method: (§2) A formulation of WIN 70177 (an iodinated X-ray contrast agent prepared according to Example 24) was prepared as 15 gm of WIN 70177/100 ml of suspension and 4.25-gm of Pluronic F108/100 ml of suspension and 10 gm of PEG 400/100 ml of suspension. The suspension was milled for 5 days after which the average particle size was determined by light scattering to be about 235 nm.

[6] = Stability testing in simulated gastric fluid; type: physicochemical; details: nanoparticle suspension, F108/PEG 400
Method: as §2

[7] = Residence within the vasculature after injection; type: in vivo; details: nanoparticles
Method: WIN 72115 was designed to be excited with incident radiation from an Argon Ion laser (in the green, near 514 nm) and emit light at wavelengths above that value. Thus, after injection, illumination of the patient with green light would stimulate emission of light of a slightly different wavelength that could be used for diagnostic purposes. The key features of this agent are that it can be prepared as nanoparticles, remain within the vasculature for greater than 15 minutes, provide both scattering and fluorescence contrast for light imaging. In place of WIN 72115, the photolabelled agent of Example 22 below may be used.

[8] = 3% Pluronic F108, 15% PEG 1450, milled 3 days, Coulter N4MD
[9] = methanol added, 0.150%, not fully dissolved
[10] = methanol added, 0.300%, not fully dissolved

| SMILES | % T solution 632 nm ([2]; dissolved by methanol, 0.015%) | % T solution 700 nm ([2]; dissolved by methanol, 0.015%) | % T solution 632 nm ([2]; dissolved by methanol, 0.0375%) | % T solution 700 nm ([2]; dissolved by methanol, 0.0375%) | % T solution 632 nm ([2]; dissolved by methanol, 0.075%) | % T solution 700 nm ([2]; dissolved by methanol, 0.075%) | % T solution 632 nm [2, 9] | % T solution 700 nm [2, 9] | % T solution 632 nm [2, 10] | % T solution 700 nm [2, 10] | % T suspension 632 nm ([2]; 0.015%) | % T suspension 700 nm ([2]; 0.015%) | % T suspension 632 nm ([2]; 0.0375%) | % T suspension 700 nm ([2]; 0.0375%) | % T suspension 632 nm ([2]; 0.075%) | % T suspension 700 nm ([2]; 0.075%) | % T suspension 632 nm ([2]; 0.150%) | % T suspension 700 nm ([2]; 0.150%) | % T suspension 632 nm ([2]; 0.300%) | % T suspension 700 nm ([2]; 0.300%) | other results |
| --- | --- | --- | --- | --- | --- | --- | --- | --- | --- | --- | --- | --- | --- | --- | --- | --- | --- | --- | --- | --- | --- |
| CCOC(=O)CCCCCOC(=O)c1c(I)c(NC(C)=O)c(I)c(NC(C)=O)c1I [WIN 67722] | 99.9% | 99.9% | 100.2% | 100.2% | 100.1% | 100.2% | 48.2* % | 55.3* % | 1.3* % | 3.5* % | 47.9% | 57.1% | 20.5% | 29.9% | 4.8% | 9.9% | 0.2% | 1.0% | 0.0% | 0.0% | average diameter after autoclaving ([1]; 3% Pluronic F108, 15% PEG 1450): 214 nm; particle size [1, 8]: 213 nm; particle size, small fraction [1, 8]: 537 nm; % T solution 820 nm ([2]; dissolved by methanol, 0.015%): 100.6%; % T solution 820 nm ([2]; dissolved by methanol, 0.0375%): 100.4%; % T solution 820 nm ([2]; dissolved by methanol, 0.075%): 100.4%; % T solution 820 nm [2, 9]: 65.5* %; % T solution 820 nm [2, 10]: 10.7* %; % T suspension 820 nm ([2]; 0.015%): 69.2%; % T suspension 820 nm ([2]; 0.0375%): 45.6%; % T suspension 820 nm ([2]; 0.075%): 22.1%; % T suspension 820 nm ([2]; 0.150%): 4.9%; % T suspension 820 nm ([2]; 0.300%): 0.2%; Absorbance vs wavelength of dissolved agent [3]: has virtually no absorbance at all even at 5 times the concentration; Absorbance vs wavelength of nanoparticle agent [3]: provides an exponential drop in absorbance with wavelength |
| CCCCC(OC(=O)c1c(I)c(NC(C)=O)c(I)c(NC(C)=O)c1I)C(=O)OCC (centres unmarked) [WIN 70146, Benzoic Acid, 3,5-bis(acetylamino)-2,4,6-triiodo-1-(ethoxycarbonyl)pentyl ester] | 100.4% | 100.3% | 99.9% | 99.9% | 99.9% | 99.8% | 41.4* % | 51.9* % | 1.2* % | 4.0* % | 54.7% | 64.5% | 25.4% | 36.6% | 7.7% | 15.4% | 0.5% | 1.9% | 0.0% | 0.1% | average diameter after autoclaving ([1]; 4.25% F108/10% PEG 400): 228 nm; average particle size ([1]; 15% WIN 70146, 4% Pluronic F-108, milled 3 days): 162 nm; final particle size after autoclaving ([1]; 15% agent, 3% Pluronic F-108, 10% PEG 400, 121 degrees C. for 20 min): 248 nm; final particle size after milling ([1]; Pluronic F-108, milled 3 days, before PEG 400 and autoclaving): 235 nm; Stability to heat and shelf time of nanoparticle suspension ([1]; in F108 and T908, autoclaving, time on the shelf): excellent stability to heat (autoclaving) and time on the shelf; Untoward effects ([4]; tail vein, 3, 15 and 30 ml/kg (0.45, 2.25, 4.5 gm/kg), 7 days): No untoward effects were noted; Gross observation after sacrifice ([4]; tail vein, 3-30 ml/kg, after 7 days): did not reveal any obvious lesions or disfigurations; % T solution 820 nm ([2]; dissolved by methanol, 0.015%): 100.5%; % T solution 820 nm ([2]; dissolved by methanol, 0.0375%): 99.9%; % T solution 820 nm ([2]; dissolved by methanol, 0.075%): 99.9%; % T solution 820 nm [2, 9]: 66.2* %; % T solution 820 nm [2, 10]: 13.5* %; % T suspension 820 nm ([2]; 0.015%): 77.0%; % T suspension 820 nm ([2]; 0.0375%): 53.8%; % T suspension 820 nm ([2]; 0.075%): 31.8%; % T suspension 820 nm ([2]; 0.150%): 8.6%; % T suspension 820 nm ([2]; 0.300%): 0.8%; Absorbance vs wavelength of dissolved agent [3]: does not show any evidence of light absorbance from 600 to 800 nm; Absorbance vs wavelength of nanoparticle agent [3]: shows a classic absorbance decay due to scattering of the incident light |
| CC(=O)Nc1c(I)c(NC(C)=O)c(I)c(C(=O)OCC(C(=O)OC(C)C)C(=O)OC(C)C)c1I [WIN 70177, Propanedioic Acid, [[3,5-bis(acetylamino)-2,4,6-triiodobenzoyl]oxy]methyl-bis(1-methylethyl)ester] | 102.2% | 101.9% | 102.3% | 101.9% | 100.9% | 100.8% | 59.5* % | 67.8* % | 7.4* % | 14.4* % | 53.3% | 62.8% | 34.6% | 45.7% | 25.8% | 36.8% | 6.7% | 13.6% | 0.1% | 0.6% | average diameter after autoclaving ([1]; 4.25% F108/10% PEG 400): 236 nm; average particle size ([1]; 15 gm agent, 4.25 gm Pluronic F108, 10 gm PEG 400 per 100 ml, milled 5 days): about 235 nm; % T solution 800 nm ([2]; dissolved by methanol, 0.015%): 101.8%; % T solution 800 nm ([2]; dissolved by methanol, 0.0375%): 101.8%; % T solution 800 nm ([2]; dissolved by methanol, 0.075%): 101.0%; % T solution 800 nm [2, 9]: 77.0* %; % T solution 800 nm [2, 10]: 26.8* %; % T suspension 800 nm ([2]; 0.015%): 73.1%; % T suspension 800 nm ([2]; 0.0375%): 59.1%; % T suspension 800 nm ([2]; 0.075%): 51.1%; % T suspension 800 nm ([2]; 0.150%): 26.3%; % T suspension 800 nm ([2]; 0.300%): 3.2%; Aggregation in fresh rat plasma [5]: did not show any aggregation; Aggregation in simulated gastric fluid [6]: did not show any aggregation; Absorbance vs wavelength of dissolved agent [3]: has virtually no absorbance at all even at 5 times the concentration; Absorbance vs wavelength of nanoparticle agent [3]: provides an exponential drop in absorbance with wavelength |
| CCOC(=O)c1c(I)c(NS(=O)(=O)c2cccc3c(N(C)C)cccc23)c(I)c(N(CC)C(C)=O)c1I [WIN 72115, 3-(N-Acetyl-N-ethylamino)-5-[(5-dimethylamino-1-naphthylsulfonyl)amino]-2,4,6-triiodobenzoic Acid Ethyl Ester] | – | – | – | – | – | – | – | – | – | – | – | – | – | – | – | – | – | – | – | – | average particle size ([1]; 15 gm agent and 3 gm Pluronic F108 per 100 ml): 225 nm; Time remaining within the vasculature [7]: greater than 15 minutes; melting point: 238 to 240 °C |
